Laboratory results taken from the supplement of paper PMC8671470.

tested on: BV-173; experiment: cell viability (% survival relative to DMSO control, bortezomib = 0%); higher = less cytotoxic; settings: 1000 nM; 72 h
In short: (§1)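 Fifteen myeloid leukaemia cell lines were exposed to compounds at 1, 10, 100, 1000 or 10000 nM in 384-well plates for 72 h at 37 °C and 5% CO2. Viability was read by CellTiter-Glo luminescence and normalised, with vehicle as 100% and a 10 µM positive control as 0%. Values are percent survival averaged over duplicates.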

Compound	cell viability [%]
CCCCCOC(=O)Nc1nc(=O)n([C@@H]2O[C@H](C)[C@@H](O)[C@H]2O)cc1F [Capecitabine]	97.5
Cc1ccc(-c2cc(C(F)(F)F)nn2-c2ccc(S(N)(=O)=O)cc2)cc1 [Celecoxib]	84.9
O=c1c(-c2ccc(O)cc2)coc2cc(O[C@@H]3O[C@H](CO)[C@@H](O)[C@H](O)[C@H]3O)ccc12 [Daidzin]	125
CCN(CC)C(=S)SSC(=S)N(CC)CC [Disulfiram]	37.5
c1cc(-c2cnn3cc(-c4ccc(OCCN5CCCCC5)cc4)cnc23)ccn1 [Dorsomorphin]	90.1
C[C@H]1c2cccc(O)c2C(=O)C2C(=O)[C@]3(O)C(=O)C(C(N)=O)C(=O)[C@@H](N(C)C)[C@@H]3[C@@H](O)[C@@H]21 (some centres undefined) [Doxycycline]	102

same assay, conditions: 10000 nM; 72 h

Compound	cell viability [%]
Cc1c(Cl)cccc1S(=O)(=O)Nc1nc(CC(=O)N2CCN(C)CC2)cs1 [BVT-2733]	88.5
CCc1oc2ccccc2c1C(=O)c1cc(Br)c(O)c(Br)c1 [Benzbromarone]	127
CCOC(=O)c1sc(NC(=O)c2ccco2)c(SC#N)c1C [CBR-5884]	80
O=C(/C=C/c1ccc(O)c(O)c1)OCCc1ccccc1 [Caffeic acid phenethyl ester]	1.21
CCCCCOC(=O)Nc1nc(=O)n([C@@H]2O[C@H](C)[C@@H](O)[C@H]2O)cc1F [Capecitabine]	88.3
Cc1ccc(-c2cc(C(F)(F)F)nn2-c2ccc(S(N)(=O)=O)cc2)cc1 [Celecoxib]	83.2
O=c1c(-c2ccc(O)cc2)coc2cc(O[C@@H]3O[C@H](CO)[C@@H](O)[C@H](O)[C@H]3O)ccc12 [Daidzin]	91.8
CCN(CC)C(=S)SSC(=S)N(CC)CC [Disulfiram]	-0.175
c1cc(-c2cnn3cc(-c4ccc(OCCN5CCCCC5)cc4)cnc23)ccn1 [Dorsomorphin]	53.2
C[C@H]1c2cccc(O)c2C(=O)C2C(=O)[C@]3(O)C(=O)C(C(N)=O)C(=O)[C@@H](N(C)C)[C@@H]3[C@@H](O)[C@@H]21 (some centres undefined) [Doxycycline]	69.7

tested on: MOLM-13; experiment: as above; settings: 1 nM; 72 h
In short: as §1

Compound	cell viability [%]
Cc1c(Cl)cccc1S(=O)(=O)Nc1nc(CC(=O)N2CCN(C)CC2)cs1 [BVT-2733]	99.7
CCc1oc2ccccc2c1C(=O)c1cc(Br)c(O)c(Br)c1 [Benzbromarone]	101
CCOC(=O)c1sc(NC(=O)c2ccco2)c(SC#N)c1C [CBR-5884]	97.2
O=C(/C=C/c1ccc(O)c(O)c1)OCCc1ccccc1 [Caffeic acid phenethyl ester]	90.7
CCCCCOC(=O)Nc1nc(=O)n([C@@H]2O[C@H](C)[C@@H](O)[C@H]2O)cc1F [Capecitabine]	87.7
Cc1ccc(-c2cc(C(F)(F)F)nn2-c2ccc(S(N)(=O)=O)cc2)cc1 [Celecoxib]	81.3
O=c1c(-c2ccc(O)cc2)coc2cc(O[C@@H]3O[C@H](CO)[C@@H](O)[C@H](O)[C@H]3O)ccc12 [Daidzin]	83.9
CCN(CC)C(=S)SSC(=S)N(CC)CC [Disulfiram]	94.1
c1cc(-c2cnn3cc(-c4ccc(OCCN5CCCCC5)cc4)cnc23)ccn1 [Dorsomorphin]	77.6
C[C@H]1c2cccc(O)c2C(=O)C2C(=O)[C@]3(O)C(=O)C(C(N)=O)C(=O)[C@@H](N(C)C)[C@@H]3[C@@H](O)[C@@H]21 (some centres undefined) [Doxycycline]	124

same assay, conditions: 10 nM; 72 h

Compound	cell viability [%]
Cc1c(Cl)cccc1S(=O)(=O)Nc1nc(CC(=O)N2CCN(C)CC2)cs1 [BVT-2733]	89.1
CCc1oc2ccccc2c1C(=O)c1cc(Br)c(O)c(Br)c1 [Benzbromarone]	101
CCOC(=O)c1sc(NC(=O)c2ccco2)c(SC#N)c1C [CBR-5884]	82.9
O=C(/C=C/c1ccc(O)c(O)c1)OCCc1ccccc1 [Caffeic acid phenethyl ester]	94.9
CCCCCOC(=O)Nc1nc(=O)n([C@@H]2O[C@H](C)[C@@H](O)[C@H]2O)cc1F [Capecitabine]	104
Cc1ccc(-c2cc(C(F)(F)F)nn2-c2ccc(S(N)(=O)=O)cc2)cc1 [Celecoxib]	85.7
O=c1c(-c2ccc(O)cc2)coc2cc(O[C@@H]3O[C@H](CO)[C@@H](O)[C@H](O)[C@H]3O)ccc12 [Daidzin]	107
CCN(CC)C(=S)SSC(=S)N(CC)CC [Disulfiram]	76.7
c1cc(-c2cnn3cc(-c4ccc(OCCN5CCCCC5)cc4)cnc23)ccn1 [Dorsomorphin]	78.5
C[C@H]1c2cccc(O)c2C(=O)C2C(=O)[C@]3(O)C(=O)C(C(N)=O)C(=O)[C@@H](N(C)C)[C@@H]3[C@@H](O)[C@@H]21 (some centres undefined) [Doxycycline]	114

same assay, conditions: 100 nM; 72 h

Compound	cell viability [%]
Cc1c(Cl)cccc1S(=O)(=O)Nc1nc(CC(=O)N2CCN(C)CC2)cs1 [BVT-2733]	97.8
CCc1oc2ccccc2c1C(=O)c1cc(Br)c(O)c(Br)c1 [Benzbromarone]	91.3
CCOC(=O)c1sc(NC(=O)c2ccco2)c(SC#N)c1C [CBR-5884]	112
O=C(/C=C/c1ccc(O)c(O)c1)OCCc1ccccc1 [Caffeic acid phenethyl ester]	81.9
CCCCCOC(=O)Nc1nc(=O)n([C@@H]2O[C@H](C)[C@@H](O)[C@H]2O)cc1F [Capecitabine]	121
Cc1ccc(-c2cc(C(F)(F)F)nn2-c2ccc(S(N)(=O)=O)cc2)cc1 [Celecoxib]	85.4
O=c1c(-c2ccc(O)cc2)coc2cc(O[C@@H]3O[C@H](CO)[C@@H](O)[C@H](O)[C@H]3O)ccc12 [Daidzin]	105
CCN(CC)C(=S)SSC(=S)N(CC)CC [Disulfiram]	93.3
c1cc(-c2cnn3cc(-c4ccc(OCCN5CCCCC5)cc4)cnc23)ccn1 [Dorsomorphin]	97.5
C[C@H]1c2cccc(O)c2C(=O)C2C(=O)[C@]3(O)C(=O)C(C(N)=O)C(=O)[C@@H](N(C)C)[C@@H]3[C@@H](O)[C@@H]21 (some centres undefined) [Doxycycline]	92.7

same assay, conditions: 1000 nM; 72 h

Compound	cell viability [%]
Cc1c(Cl)cccc1S(=O)(=O)Nc1nc(CC(=O)N2CCN(C)CC2)cs1 [BVT-2733]	110
CCc1oc2ccccc2c1C(=O)c1cc(Br)c(O)c(Br)c1 [Benzbromarone]	90.8
CCOC(=O)c1sc(NC(=O)c2ccco2)c(SC#N)c1C [CBR-5884]	97.3
O=C(/C=C/c1ccc(O)c(O)c1)OCCc1ccccc1 [Caffeic acid phenethyl ester]	97.2
CCCCCOC(=O)Nc1nc(=O)n([C@@H]2O[C@H](C)[C@@H](O)[C@H]2O)cc1F [Capecitabine]	113
Cc1ccc(-c2cc(C(F)(F)F)nn2-c2ccc(S(N)(=O)=O)cc2)cc1 [Celecoxib]	139
O=c1c(-c2ccc(O)cc2)coc2cc(O[C@@H]3O[C@H](CO)[C@@H](O)[C@H](O)[C@H]3O)ccc12 [Daidzin]	99.8
CCN(CC)C(=S)SSC(=S)N(CC)CC [Disulfiram]	98.2
c1cc(-c2cnn3cc(-c4ccc(OCCN5CCCCC5)cc4)cnc23)ccn1 [Dorsomorphin]	108
C[C@H]1c2cccc(O)c2C(=O)C2C(=O)[C@]3(O)C(=O)C(C(N)=O)C(=O)[C@@H](N(C)C)[C@@H]3[C@@H](O)[C@@H]21 (some centres undefined) [Doxycycline]	104

same assay, conditions: 10000 nM; 72 h

Compound	cell viability [%]
Cc1c(Cl)cccc1S(=O)(=O)Nc1nc(CC(=O)N2CCN(C)CC2)cs1 [BVT-2733]	96.4
CCc1oc2ccccc2c1C(=O)c1cc(Br)c(O)c(Br)c1 [Benzbromarone]	136
CCOC(=O)c1sc(NC(=O)c2ccco2)c(SC#N)c1C [CBR-5884]	81.4
